Measured values: patent publication US9149038B2, “4-amino-6-(heterocyclic)picolinates and 6-amino-2-(heterocyclic)pyrimidine-4-carboxylates and their use as herbicides” (Dow AgroSciences LLC, priority 2013, dated 2015)
Where two headings read alike, the source gives them in different places.

Assays:
[1] = system: Key Grass and Sedge Weeds as well as Grass Crops; test: Post-Emergent Test II: postemergent herbicidal activity, visual rating after 14 d (Table 8); type: in vivo; settings: post-emergence, 336 h; for pest or weed control at 35 g/ha: 35 g ai/ha; for pest or weed control at 70 g/ha: 70 g ai/ha; for pest or weed control at 140 g/ha: 140 g ai/ha
In short: (§1)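 Post-emergence foliar spray, 187 L/ha, first/second true leaf stage plants in potting mix (pH 6.0-6.8). Rates: top rate and 2-fold serial dilutions to 1/16×. Solvent-blank controls. Readout: visual % kill at 14 d.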

[2] = system: Key Broadleaf Weed and Crop Species; test: Post-Emergent Test II: postemergent herbicidal activity, visual rating after 14 d (Table 7); type: in vivo; settings: post-emergence, 336 h; for pest or weed control at 35 g/ha: 35 g ai/ha; for pest or weed control at 70 g/ha: 70 g ai/ha; for pest or weed control at 140 g/ha: 140 g ai/ha
In short: as §1

[3] = barnyardgrass (Echinochloa crus-galli), read-out: Visual Growth Reduction (%) 14 Days After Application, ECHCG
[4] = giant foxtail (Setaria faberi), read-out: Visual Growth Reduction (%) 14 Days After Application, SETFA
[5] = maize, corn (Zea mays), read-out: Visual Growth Reduction (%) 14 Days After Application, ZEAMX
[6] = rice (Oryza sativa), read-out: Visual Growth Reduction (%) 14 Days After Application, ORYSA
[7] = wheat, spring (Triticum aestivum), read-out: Visual Growth Reduction (%) 14 Days After Application, TRZAS
[8] = yellow nutsedge (Cyperus esculentus), read-out: Visual Growth Reduction (%) 14 Days After Application, CYPES
[9] = ABUTH: velvetleaf (Abutilon theophrasti), read-out: Visual Growth Reduction (%) 14 Days After Application ABUTH
[10] = AMARE: redroot pigweed (Amaranthus retroflexus), read-out: Visual Growth Reduction (%) 14 Days After Application AMARE
[11] = BRSNN: oilseed rape, canola (Brassica napus), read-out: Visual Growth Reduction (%) 14 Days After Application BRSNN
[12] = CHEAL: lambsquarters (Chenopodium album), read-out: Visual Growth Reduction (%) 14 Days After Application CHEAL
[13] = EPHHL: wild poinsettia (Euphorbia heterophylla), read-out: Visual Growth Reduction (%) 14 Days After Application EPHHL
[14] = HELAN: sunflower (Helianthus annuus), read-out: Visual Growth Reduction (%) 14 Days After Application HELAN

| Structure (SMILES) | pest or weed control at 35 g/ha [1, 3] [%] | pest or weed control at 70 g/ha [1, 3] [%] | pest or weed control at 140 g/ha [1, 3] [%] | pest or weed control at 35 g/ha [1, 4] [%] | pest or weed control at 70 g/ha [1, 4] [%] | pest or weed control at 140 g/ha [1, 4] [%] | pest or weed control at 35 g/ha [1, 5] [%] | pest or weed control at 70 g/ha [1, 5] [%] | pest or weed control at 140 g/ha [1, 5] [%] | pest or weed control at 35 g/ha [1, 6] [%] | pest or weed control at 70 g/ha [1, 6] [%] | pest or weed control at 140 g/ha [1, 6] [%] | pest or weed control at 35 g/ha [1, 7] [%] | pest or weed control at 70 g/ha [1, 7] [%] | pest or weed control at 140 g/ha [1, 7] [%] | pest or weed control at 35 g/ha [1, 8] [%] | pest or weed control at 70 g/ha [1, 8] [%] | pest or weed control at 140 g/ha [1, 8] [%] | pest or weed control at 35 g/ha [2, 9] [%] | pest or weed control at 70 g/ha [2, 9] [%] | other results |
| --- | --- | --- | --- | --- | --- | --- | --- | --- | --- | --- | --- | --- | --- | --- | --- | --- | --- | --- | --- | --- | --- |
| COc1c(N)nc(-c2ccc(Cl)c3c2OC(F)(F)O3)nc1C(=O)O [Compound 96] | 0 to 29 | 0 to 29 | 0 to 29 | 0 to 29 | 0 to 29 | 0 to 29 | 30 to 44 | 60 to 74 | 60 to 74 | 0 to 29 | 0 to 29 | 0 to 29 | 0 to 29 | 30 to 44 | 45 to 59 | 0 to 29 | 0 to 29 | 0 to 29 | 75 to 84 | 60 to 74 | pest or weed control at 140 g/ha [2, 9]: 85 to 94%; pest or weed control at 35 g/ha [2, 10]: 95 to 100%; pest or weed control at 70 g/ha [2, 10]: 95 to 100%; pest or weed control at 140 g/ha [2, 10]: 95 to 100%; pest or weed control at 35 g/ha [2, 11]: 0 to 29%; pest or weed control at 70 g/ha [2, 11]: 75 to 84%; pest or weed control at 140 g/ha [2, 11]: 85 to 94%; pest or weed control at 35 g/ha [2, 12]: 95 to 100%; pest or weed control at 70 g/ha [2, 12]: 95 to 100%; pest or weed control at 140 g/ha [2, 12]: 95 to 100%; pest or weed control at 35 g/ha [2, 13]: 0 to 29%; pest or weed control at 70 g/ha [2, 13]: 0 to 29%; pest or weed control at 140 g/ha [2, 13]: 0 to 29%; pest or weed control at 35 g/ha [2, 14]: 95 to 100%; pest or weed control at 70 g/ha [2, 14]: 95 to 100%; pest or weed control at 140 g/ha [2, 14]: 95 to 100% |
| COC(=O)c1nc(-c2ccc(F)c3c2OCO3)nc(N)c1OC [Compound 97] | 0 to 29 | 0 to 29 | 0 to 29 | 0 to 29 | 0 to 29 | 0 to 29 | 0 to 29 | 0 to 29 | 0 to 29 | 0 to 29 | 0 to 29 | 0 to 29 | 0 to 29 | 0 to 29 | 0 to 29 | 0 to 29 | 0 to 29 | 0 to 29 | 0 to 29 | 0 to 29 | pest or weed control at 140 g/ha [2, 9]: 0 to 29%; pest or weed control at 35 g/ha [2, 10]: 0 to 29%; pest or weed control at 70 g/ha [2, 10]: 0 to 29%; pest or weed control at 140 g/ha [2, 10]: 0 to 29%; pest or weed control at 35 g/ha [2, 11]: 0 to 29%; pest or weed control at 70 g/ha [2, 11]: 0 to 29%; pest or weed control at 140 g/ha [2, 11]: 0 to 29%; pest or weed control at 35 g/ha [2, 12]: 60 to 74%; pest or weed control at 70 g/ha [2, 12]: 85 to 94%; pest or weed control at 140 g/ha [2, 12]: 60 to 74%; pest or weed control at 35 g/ha [2, 13]: 0 to 29%; pest or weed control at 70 g/ha [2, 13]: 0 to 29%; pest or weed control at 140 g/ha [2, 13]: 0 to 29%; pest or weed control at 35 g/ha [2, 14]: 60 to 74%; pest or weed control at 70 g/ha [2, 14]: 75 to 84%; pest or weed control at 140 g/ha [2, 14]: 85 to 94% |
| COC(=O)c1nc(-c2cccc3c2OCO3)nc(N)c1OC [Compound 98] | 0 to 29 | 0 to 29 | 0 to 29 | 0 to 29 | 0 to 29 | 0 to 29 | 0 to 29 | 0 to 29 | 0 to 29 | 0 to 29 | 0 to 29 | 0 to 29 | 0 to 29 | 0 to 29 | 0 to 29 | 0 to 29 | 0 to 29 | 0 to 29 | 0 to 29 | 0 to 29 | pest or weed control at 140 g/ha [2, 9]: 0 to 29%; pest or weed control at 35 g/ha [2, 10]: 0 to 29%; pest or weed control at 70 g/ha [2, 10]: 0 to 29%; pest or weed control at 140 g/ha [2, 10]: 30 to 44%; pest or weed control at 35 g/ha [2, 11]: 0 to 29%; pest or weed control at 70 g/ha [2, 11]: 0 to 29%; pest or weed control at 140 g/ha [2, 11]: 0 to 29%; pest or weed control at 35 g/ha [2, 12]: 45 to 59%; pest or weed control at 70 g/ha [2, 12]: 60 to 74%; pest or weed control at 140 g/ha [2, 12]: 60 to 74%; pest or weed control at 35 g/ha [2, 13]: 0 to 29%; pest or weed control at 70 g/ha [2, 13]: 0 to 29%; pest or weed control at 140 g/ha [2, 13]: 0 to 29%; pest or weed control at 35 g/ha [2, 14]: 0 to 29%; pest or weed control at 70 g/ha [2, 14]: 30 to 44%; pest or weed control at 140 g/ha [2, 14]: 60 to 74% |
| COC(=O)c1nc(-c2cccc3c2OC(F)(F)O3)nc(N)c1OC [Compound 99] | 0 to 29 | 0 to 29 | 0 to 29 | 0 to 29 | 0 to 29 | 0 to 29 | 0 to 29 | 0 to 29 | 0 to 29 | 0 to 29 | 0 to 29 | 0 to 29 | 0 to 29 | 0 to 29 | 0 to 29 | 0 to 29 | 0 to 29 | 0 to 29 | 0 to 29 | 0 to 29 | pest or weed control at 140 g/ha [2, 9]: 0 to 29%; pest or weed control at 35 g/ha [2, 10]: 0 to 29%; pest or weed control at 70 g/ha [2, 10]: 0 to 29%; pest or weed control at 140 g/ha [2, 10]: 0 to 29%; pest or weed control at 35 g/ha [2, 11]: 0 to 29%; pest or weed control at 70 g/ha [2, 11]: 0 to 29%; pest or weed control at 140 g/ha [2, 11]: 0 to 29%; pest or weed control at 35 g/ha [2, 12]: 60 to 74%; pest or weed control at 70 g/ha [2, 12]: 75 to 84%; pest or weed control at 140 g/ha [2, 12]: 85 to 94%; pest or weed control at 35 g/ha [2, 13]: 0 to 29%; pest or weed control at 70 g/ha [2, 13]: 0 to 29%; pest or weed control at 140 g/ha [2, 13]: 0 to 29%; pest or weed control at 35 g/ha [2, 14]: 75 to 84%; pest or weed control at 70 g/ha [2, 14]: 85 to 94%; pest or weed control at 140 g/ha [2, 14]: 85 to 94% |
